Measured values reported in patent US5128366A, “Pyrrole derivatives” (Shinogi & Co., Ltd., priority 1990, dated 1992).

molecular target: T1, HMG-CoA reductase (Rattus norvegicus, UniProt P51639); assay: HMG-CoA reductase inhibitory effect in rat liver microsome, [3-14C]HMG-CoA, TLC and scintillation counting; assay type: biochemical; settings: comparative activity, Mevinolin (sodium salt) as reference drug = 100, sodium salt of the test compound, 37° C., 30 minutes
T1 construct: from tissue; host or cells: liver microsomes of Sprague-Dawley rats fed 2% cholestyramine for 2 weeks
T1 sequence (P51639 1-887): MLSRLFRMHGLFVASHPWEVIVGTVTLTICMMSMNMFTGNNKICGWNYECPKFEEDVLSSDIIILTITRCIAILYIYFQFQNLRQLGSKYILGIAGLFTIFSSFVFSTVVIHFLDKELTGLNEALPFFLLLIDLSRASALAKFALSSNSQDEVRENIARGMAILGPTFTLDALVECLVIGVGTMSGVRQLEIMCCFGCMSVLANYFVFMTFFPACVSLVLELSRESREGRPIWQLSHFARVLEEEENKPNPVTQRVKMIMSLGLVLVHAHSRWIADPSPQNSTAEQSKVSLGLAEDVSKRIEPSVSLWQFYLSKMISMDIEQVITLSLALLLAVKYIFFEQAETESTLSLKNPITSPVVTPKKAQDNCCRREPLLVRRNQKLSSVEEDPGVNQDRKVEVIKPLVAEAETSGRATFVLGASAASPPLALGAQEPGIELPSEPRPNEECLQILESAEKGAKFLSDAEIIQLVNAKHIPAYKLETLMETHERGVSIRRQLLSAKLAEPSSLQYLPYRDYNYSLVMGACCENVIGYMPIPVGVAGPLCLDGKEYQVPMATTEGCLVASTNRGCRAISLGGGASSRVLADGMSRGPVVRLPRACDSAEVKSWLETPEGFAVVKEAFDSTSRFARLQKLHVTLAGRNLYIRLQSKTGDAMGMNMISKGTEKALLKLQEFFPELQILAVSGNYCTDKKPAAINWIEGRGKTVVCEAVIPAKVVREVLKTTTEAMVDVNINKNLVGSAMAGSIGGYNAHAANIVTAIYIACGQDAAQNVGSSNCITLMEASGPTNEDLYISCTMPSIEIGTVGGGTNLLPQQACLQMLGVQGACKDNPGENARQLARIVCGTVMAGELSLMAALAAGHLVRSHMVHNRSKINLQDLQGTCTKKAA
Method: (1) Preparation of Rat Liver Microsome
Sprague-Dawley rats, which were in free access to ordinary diets containing 2% cholestyramine and water for 2 weeks, were used for the preparation of rat liver microsome, which were then purified according to the manner by Kuroda et al., Biochem. Biophys. Act, 486, 70 (1977). The microsomal fraction obtained by centrifugation at 105000×g was washed once with a buffered solution containing 15 mM nicotinamide and 2 mM magnesium chloride (in a 100 mM potassium phosphate buffer, pH 7.4). It was homogenized with a buffer containing nicotinamide and magnesium chloride at the same weight as the liver employed. The thus obtained homogenate was cooled down to and kept at -80° C.
(2) Measurement of the HMG-CoA Reductase Inhibitory Activities
The rat liver microsome (100 μl), which was preserved at -80° C., was […] at 0° C. and diluted with 0.7 ml of a cold potassium phosphate buffer (100 mM, pH 7.4 ). This was mixed with 0.8 ml of 50 mM EDTA (buffered with the aforementioned potassium phosphate buffer) and 0.4 ml of 100 mM dithiothreitol solution (buffered with the aforementioned potassium phosphate buffer), and the mixture was kept at 0° C. The microsome solution, 1.675 ml, was mixed with 670 μl of 25 mM NADPH (buffered with the aforementioned potassium phosphate buffer), and the solution was added to the solution of 0.5 mM [3^-14 C]HMG-CoA (3 mCi/mmol). Potassium phosphate buffer of sodium salt of the test compound 5 μl is added to the mixture of microsome and HMG-CoA 45 μl, and the resulting mixture was incubated at 37° C. for 30 minutes and cooled. After termination of the reaction by addition of 10 μl of 2N-HCl, the mixture was incubated again at 37° C. for 15 minutes and then 30 μl of this mixture was applied to thin-layer chromatography with silica gel of 0.5 mm in thickness (Merck AG, Art 5744). The chromatograms were developed in toluene/acetone (1/1) and the sections, whose Rf value was between 0.45 to 0.6, were scraped. The obtained products were put into a vial containing 8 ml of scintillator to measure specific radio-activity with a scintillation counter.

Row | HMG-CoA reductase inhibitory activities | SMILES
1 | 100 | CC[C@H](C)C(=O)O[C@H]1C[C@@H](C)C=C2C=C[C@H](C)[C@H](CC[C@@H](O)C[C@@H](O)CC(=O)O)[C@H]21 [Mevinolin Na, Mevinolin, reference compound]
2 | 418 | Cc1c(-c2ccc(F)cc2)c(/C=C/[C@@H](O)C[C@@H](O)CC(=O)O)c(C(C)C)n1S(C)(=O)=O [Id-2, (+) Sodium 7-[4-(4-fluorophenyl)-2-isopropyl-5-methyl-(1-methylsulfonyl)pyrrol-3-yl]-(3R,5S)-dihydroxy-(E)-6-heptenate]
3 | 105 | Cc1c(-c2ccc(F)cc2)c(/C=C/[C@@H](O)C[C@@H](O)CC(=O)O)c(C(C)C)n1S(=O)(=O)Cc1ccccc1 (relative stereo) [Ia-19, 7-[4-(4-Fluorophenyl)-2-isopropyl-5-methyl-(1-benzylsulfonyl)-pyrrol-3-yl]-(3R*,5S*)-dihydroxy-(E)-6-heptenate]

The next lines start with the compound.

Row | SMILES | HMG-CoA reductase inhibitory activities
4 | CC(C)c1c(/C=C/[C@@H](O)C[C@@H](O)CC(=O)O)c(-c2ccc(F)cc2)cn1S(C)(=O)=O (relative stereo) [Ia-10] | 263
5 | CCS(=O)(=O)n1c(C)c(-c2ccc(F)cc2)c(/C=C/[C@@H](O)C[C@@H](O)CC(=O)O)c1C(C)C (relative stereo) [Ia-18, 7-[4-(4-Fluorophenyl)-2-isopropyl-5-methyl-(1-ethylsulfonyl)pyrrol-3-yl]-(3R*,5S*)-dihydroxy-(E)-6-heptenate] | 228
6 | CC(C)c1c(/C=C/[C@@H](O)C[C@@H](O)CC(=O)O)c(-c2ccc(F)cc2)c(-c2ccc(F)cc2)n1S(C)(=O)=O (relative stereo) [Ia-17, 7-.upsilon.4,5-Di-(4-fluorophenyl)-2-isopropyl-1-(methylsulfonyl)-pyrrol-3-yl]-(3R*,5S*)-dihydroxy-(E)-6-heptenoic acid] | 293
